Values of other authors, collected in patent publication US20170119663A1, “NOVEL GASTRO-RETENTIVE DOSAGE FORMS” (Grünenthal GmbH, priority 2010, published 2017).
Like-named read-outs stand apart in the source and are kept apart here.

Question: With `NCC1(CC(=O)O)CCCCC1` [gabapentin] as the molecule, how does the oral bioavailability (dose in the range of 300-400 mg) read?
Answer: approximately 60%

Question: What about the oral bioavailability (dose of 1600 mg) of the same molecule?
Answer: 35%

Question: Which absorption window (small intestine and ascending colon) does the source give for `CC(C)C[C@H](CN)CC(=O)O` [pregabalin] here?
Answer: around six
